# Measured values from patent US20220143184A1, “MITOCHONDRION/RIBONUCLEIC ACID-TARGETED AND MIGRATABLE PHOTOSENSITIZED PROBE AND APPLICATION THEREOF” (SHENZHEN INSTITUTES OF ADVANCED TECHNOLOGY, priority 2019, published 2022).
# Key:
# [1] = Hydroxyl radical generation in aqueous solution, APF fluorescence (Example 8, Experiment 3); format: physicochemical; settings: 10 μM APF, white light 300 mW/cm^2, 0-180 s
# Description: (§1) Different reactive oxygen indicators were added to the photosensitized probe aqueous solution, and the fluorescence or absorption spectra were measured. Four experiments were conducted as follows:
# 10 μM APF was added to the aqueous solutions of PBS, 2 μM photosensitized probe, 2 μM photosensitized probe+0.8 mM RNA, 2 μM RB (a commercial singlet oxygen-generating photosensitizer). These solutions were irradiated for 0-180 s with the white light (300 mW/cm^2) of the xenon lamp, the fluorescence spectra at 500-700 nm were measured, and the fluorescence intensities at 514 nm were recorded to indicate the generation rate of hydroxyl radical.
# [2] = test system: mitochondria of HeLa cells; experiment: Colocalization with Mito-Tracker Green (MTG) in HeLa cells before and after photodynamic therapy (Example 10); format: cell-based; settings: 10 μM probe, 1 μM MTG
# Description: The glass-bottom cell culture dishes covered with HeLa cells prepared in Example 2 were washed three times with PBS, then incubated with a 1 μM MTG in a CO2 incubator in darkness for 30 min. […] The stained cells were observed under a confocal laser scanning microscope, and fluorescence distribution and intensity changes in the cells before and after the photodynamic therapy (irradiated by mercury lamp at 510-560 nm) were recorded.
# [3] = test system: Ribonucleic acid (RNA); experiment: Specific fluorescence recognition of biomolecules in solution (Example 13); format: binding; settings: 2 μM probe
# Description: After interaction for 5 min, the fluorescence spectra under excitation at 500 nm were measured, and the fluorescence intensities at 600 nm were recorded. Biomolecules include: Ribonucleic acid (RNA, 1.6 mM), deoxyribonucleic acid (DNA, 1.6 mM), amino acids (10 mM), hydrogen peroxide (10 mM), and metal ions (10 mM); in which, the amino acids include: Glutathione (GSH), homocysteine (Hcy), cysteine (Cys), glycine […], alanine (Ala), norvaline (Nor), glutamate (Glu), histidine (his), isoleucine (Iso), leucine (Leu), methionine (Met), phenylalanine (Phe), proline (Pro), serine (Ser), threonine (Thr), tryptophan (Try), and tyrosine (Tyr); and the metal ions include: Ca^2+, Fe^3+, Mg^2+, and Zn^2+.
# [4] = test system: HeLa cells; experiment: Photodynamic therapy efficiency to HeLa cells, MTT method (Example 16); format: cell-based; settings: 5-20 μM, 30 min in darkness, xenon lamp white light 5 min
# [5] = Oxygenous radicals by electron spin resonance with DMPO (Example 8, Experiment 4); format: physicochemical; settings: white light 300 mW/cm^2, 5 min
# Description: as §1
# DMPO was added to the aqueous solutions of RNA, 2 μM photosensitized probe of the application, 2 μM photosensitized probe+0.8 mM RNA. These solutions were irradiated for 5 min by the white light (300 mW/cm^2) of the xenon lamp. The electron spin resonance spectra before and after irradiation were measured, and the signal intensities indicate the amount of hydroxyl radicals.
# [6] = Generation rate of all types of reactive oxygen species in aqueous solution, DCFH (Example 8, Experiment 1); format: physicochemical; settings: 2 μM probe + 0.8 mM RNA, white light 300 mW/cm^2, 0-180 s
# Description: as §1
# 10 μM 2′,7′-dichlorodihydrofluorescein (DCFH) was added to aqueous solutions of PBS, 2 μM photosensitized probe, 2 μM photosensitized probe of the application+0.8 mM RNA, and 2 μM Rose Bengal B (RB). These solutions were irradiated for 0-180 s with white light (300 mW/cm^2) of a xenon lamp with ultraviolet light filtered out, fluorescence spectra at 500-700 nm were measured under 488 nm excitation, and the fluorescence intensities at 529 nm were recorded to indicate the generation rate of all types of reactive oxygen species.
# [7] = test system: HeLa cells; experiment: Fluorescence imaging of live HeLa cells stained with the probe, before and after light irradiation (Example 3); format: cell-based; settings: 10 μM
# Description: The following three groups of experiments were performed: (1) The cells were stained in darkness for 30 min, and then irradiated by a white light of the mercury lamp for 5 min; (2) The cells were stained in darkness for 30 min, without light irradiation. (1) The cells were stained in darkness for 10 min. (2) The cells were stained in darkness for 30 min. (3) The cells were stained in darkness for 60 min. (4) The cells were stained in darkness for 120 min. (1) The cells were stained for 30 min, and then irradiated by light at 510-560 nm for 10 seconds. (2) The cells were stained for 30 min, and then irradiated by light at 510-560 nm for 1 minute. (3) The cells were stained for 30 min, and then irradiated by light at 510-560 nm for 2 min. (4) The cells were stained for 30 min, and then irradiated by light at 510-560 nm for 3 min. (5) The cells were stained for 30 min, and then irradiated by light at 510-560 nm for 4 min. (6) The cells were stained for 30 min, and then irradiated by light at 510-560 nm for 5 min. The stained cells were observed under a fluorescence microscope and a confocal laser scanning microscope and the stained regions, fluorescence distributions, and intensity changes in cells were recorded.
# [8] = test system: HeLa cells; experiment: Cell morphology (DIC) of HeLa cells during photodynamic therapy (Example 12); format: cell-based; settings: 10 μM probe, 510-560 nm, 3 min irradiation
# Description: The resulting stained cells and a control group without the photosensitized probe incubation were observed under a fluorescence microscope, and differential interference contrast images of the cells during the photodynamic therapy (irradiated with mercury lamp at 510-560 nm) were recorded.
# [9] = test system: ribonucleic acid; experiment: Binding mode with ribonucleic acid, circular dichroism spectra (Example 14); settings: 10 μM in PBS, 5 min
# Description: 10 μM (E)-4-(2-(5-methoxy-1H-indole-3-)vinyl)-1-methylquinolinium iodide was mixed with ribonucleic acid and deoxyribonucleic acid in PBS for 5 min, and the circular dichroism spectra were measured.
# [10] = test system: 4T1 cell subcutaneous tumor
# Description: The 4T1 cells were cultured adherently in a culture medium containing a 10% fetal bovine serum, in a saturated humidity incubator with 5% CO2 at 37° C., and subcultured every 2-3 days. After the cells have grown to the logarithmic phase, the cells were subcutaneously inoculated into the right hind leg of a nude mouse: Specifically, the overgrown cells in the T25 cell culture flask were washed with 1 mL 0.25% trypsin, and then digested with another 1 mL 0.25% trypsin for 1 to 2 min. After adding the fresh medium, the cells were evenly pipetted, counted, centrifuged and washed with PBS three times, the cell density was controlled with the added amount of PBS to make a final concentration of cells to be 1×107 per milliliter. After that the cells were inoculated subcutaneously into the right hind leg of nude mice, each with approximately 1.2×10^6 cells. After the tumors grow for approximately a week, the mice were used for tumor photodynamic therapy and in vivo fluorescence imaging experiments.
# The nude mouse tumor models prepared in Example 7 were divided into three groups for intratumor injection of drugs, with a dosage of 50 μL (1 mM) per tumor volume 100 mm^3.
# After the photodynamic therapy, the tumor tissues are sectioned and stained with TUNEL and HE, and the results are shown in FIG. 19.
# [11] = Singlet oxygen generation in aqueous solution, ABDA absorbance (Example 8, Experiment 2); format: physicochemical; settings: for absorbance of ABDA at 378 nm with light irradiation: 50 μM ABDA, white light 300 mW/cm^2, 0-6 min
# Description: as §1
# 50 μM ABDA was added to the aqueous solutions of PBS, 2 μM photosensitized probe, 2 μM photosensitized probe+0.8 mM RNA, and 2 μM RB (a commercial singlet oxygen-generating photosensitizer). These solutions were irradiated for 0-6 min with the white light (300 mW/cm^2) of the xenon lamp, absorption spectra at 300-600 nm were measured, and the absorbance values at 378 nm were recorded to indicate the generation rate of singlet oxygen.
compound,measurement,setting,value
"COc1ccc2[nH]cc(/C=C/c3cc[n+](C)c4ccccc34)c2c1.[I-] [photosensitized probe 1, (E)-4-(2-(5-methoxy-1H-indole-3-)vinyl)-1-methylquinolinium iodide]",hydroxyl radicals generation (APF fluorescence at 514 nm),[1]; 2 μM probe + 0.8 mM RNA,more hydroxyl radicals are generated
same,hydroxyl radicals generation (APF fluorescence at 514 nm),[1]; 2 μM probe alone,can effectively generate hydroxyl radicals
same,location of the probe before photodynamic therapy,[2]; darkness,located in the mitochondria
same,location of the probe after photodynamic therapy,[2]; mercury lamp 510-560 nm,migration of the photosensitized probe to the cytoplasm and nucleolus regions
same,increase of fluorescence intensity after binding with ribonucleic acid compared with the probe itself,"[3]; RNA 1.6 mM in PBS, 5 min, excitation 500 nm, emission 600 nm",more than 100 times
same,fluorescence with RNA compared with deoxyribonucleic acid,"[3]; RNA 1.6 mM, DNA 1.6 mM",significantly stronger than that of the probe after binding with deoxyribonucleic acid
same,fluorescence response to other biomolecules,"[3]; amino acids, hydrogen peroxide, metal ions 10 mM",no obvious fluorescence response
same,cell viability after photodynamic therapy,[4],greatly reduced
same,oxygenous radicals generation (ESR),[5]; 2 μM probe + 0.8 mM RNA,more oxygenous radicals can be generated
same,oxygenous radicals generation (ESR),[5]; 2 μM probe alone,can effectively generate oxygenous radicals
same,rate of reactive oxygen species production (DCFH fluorescence at 529 nm) versus probe alone and RB,[6],significantly higher
same,fluorescence of live cells stained in darkness with increasing incubation time,[7]; darkness 10-120 min,relatively weak red fluorescence only in the cytoplasm regions
same,fluorescence with increasing light irradiation time,"[7]; stained 30 min, 510-560 nm green light 10 s-5 min",the fluorescence gradually increases
same,fluorescence of live cells after light irradiation,"[7]; stained 30 min, mercury lamp white light 5 min, 488 nm excitation",strong red fluorescence in the cytoplasm and nucleolus region
same,fluorescence of live cells without light irradiation,"[7]; stained in darkness 30 min, 488 nm excitation, confocal",weak red fluorescence only in the cytoplasm region
same,cell morphology after light irradiation (symbol of cell apoptosis),[8],many vesicles form near cell membrane
same,binding mode with ribonucleic acid,[9],minor groove binding
same,circular dichroism spectrum after being mixed with DNA,[9],no obvious change
same,circular dichroism spectrum after being mixed with RNA,[9],negative Cotton effect
same,tumor growth (tumor volume),"[10]; 1+Light, within 16 days of therapy",significantly inhibited
same,fluorescence intensity of the tumor site with the progress of the photodynamic therapy,"[10]; intratumor injection 50 μL (1 mM) per 100 mm^3, 0-10 min during and 10-60 min after therapy",increases significantly
same,fluorescence at the tumor site after the photodynamic therapy,[10]; probe with light irradiation,bright fluorescence at the tumor site
same,TUNEL staining of tumor tissue section,[10]; probe with photodynamic therapy,died in the apoptosis pathway
same,HE staining of tumor tissue section,[10]; probe with photodynamic therapy (third group),seriously damaged
same,fluorescence at the tumor site without the photodynamic therapy,"[10]; probe, fed in darkness",weak fluorescence at the tumor site
same,absorbance of ABDA at 378 nm with light irradiation,[11]; 2 μM probe + 0.8 mM RNA,slight decrease
same,singlet oxygen generation compared with RB,"[11]; 2 μM, white light 300 mW/cm^2",generates less singlet oxygen
same,absorbance of ABDA at 378 nm with light irradiation,"[11]; 2 μM, without RNA",slight decrease
